Counter-ions that a name gives are not always drawn.
What was measured:
[1] = test system: MCF-7; experiment: Annexin V/PI apoptosis flow cytometry in MCF-7; format: cell-based; conditions: 24 h
Experimental: To assess if the cell death induced by centans in MCF-7 and MDA-MB231 lines is apoptotic in nature, apoptosis was measured by flow cytometry using annexin V/PI staining kit from Sigma according to manufacturer's instructions.
FIG. 6 Apoptosis induction by Centans in breast cancer cells. Annexin V/PI staining of (A) MCF-7 and (B) MDA-MB231 cells were treated with vehicle (DMSO) or Centans at indicated concentrations for 24 h and […] was assessed by flow cytometry using the FL1-H channel (Annexin-V) and FL2-H channel (PI) of a Becton Dickinson FACS Calibur. Shown are representative dot plots. Quantification of flow cytometry data shown as percent of total cells (right panel). Data presented as mean±SEM from three independent experiments; *P<0.05, **P<0.01, and ***P<0.001 compared to control.

[2] = test system: HL-60; experiment: Differentiation of HL-60 cells (Wright-Giemsa staining, NBT reduction); format: cell-based; conditions: 1 μM; 3, 6 and 12 days
Experimental: Differentiation potential of Centans on HL-60 cells was evaluated by the effect of this compound on Nuclear/cytosolic ratio and change in nuclear morphology, which are reliable markers of differentiation. For this, HL60 cell treated with Centans were cyto-spinned on microscope slides and stained with Wright-Giemsa and micro-photographed. […] This was further confirmed by nitro blue tetrazolium (NBT) reduction assay in HL-60 cells (NBT reduction is a hallmark of monocyte activity). FIG. 5A (lower panel) depicts time-dependent reduction of NBT by Centans-treated cells.
FIG. 5. Centans induces granulocytic/monocytic differentiation in HL-60 model of AML. A. HL60 cells treated with Centans (1 μM) for 3, 6 and 12 days were cytospinned on Microscope slides and stained with Giemsa and May Grünwald solutions (upper panel) or NBT (lower panel), slides were microphotographed and used to detect change in nuclear morphology and NBT reduction. B. HL60 cells were treated with Vehicle (DMSO) or Centans as indicated in image, mRNA from these samples were isolated and reverse transcribed and these samples were used to measure the expression of CD11b GCSFR, and C/EBPα/β& ϵ by Quantitative real-time PCR, using GAPDH as normalizing control. Data presented as mean f SEM from three independent experiments; *P<0.05, **P<0.01, and ***P<0.001 compared to vehicle treated control.

[3] = target: SRC (Homo sapiens, UniProt P12931); experiment: SRC phosphorylation by immunoblotting in K562 cells; conditions: 0.5 μM, 1 μM Centans or 1 μM Imatinib, 48 h, western blot
[4] = test system: Vero; experiment: Cytotoxicity in Vero kidney epithelial cells; format: cell-based, monkey
Experimental: To consider a molecule as a candidate compound in cancer drug therapy, the test compound must have specific cytotoxicity towards the cancer cells without affecting normal cell growth. Therefore, all active compounds were assessed for toxicity in non-cancer cell-lines: mouse fibroblast cell line (NIH3T3) and monkey kidney epithelial cells (Vero). […] Therefore, based on safety index ([…]), 5d [Centans; based on IUPAC name prefixed with Central Drug Research Institute's signature (Cent)] was selected as a lead compound.

[5] = test system: K562; experiment: MTT cytotoxicity assay in K562 cells; format: cell-based; conditions: Homo sapiens, K562, 48 h, Table 3; MTT, 48 h, 10 point dose response; read-out: IC 50 K562
[6] = test system: MDA-MB231; experiment: MTT assay in MDA-MB-231 breast tumor cells; format: cell-based; conditions: Homo sapiens, MDA-MB-231, Table 6, 48 h, 10 point dose response
[7] = test system: K562; experiment: Differentiation of K562 cells (Wright-Giemsa staining); format: cell-based; conditions: 0.5 μM; 3, 6 and 12 days
Description: In order to clarify whether the inhibitory effects of Centans on the growth and cell cycle of K562 cells was followed by differentiation, Centans treated cells was stained with Wright-Giemsa stain. […] This differentiation was much more pronounced at 12d, where mature megakaryocytes were visible (FIG. 4A). Confirmation of Centans-mediated megakaryocytic differentiation was attained through measurement of expression of relevant cell differentiation markers by quantitative real time PCR. mRNA expression levels of cluster of differentiation 10 (CD10) (transiently present during B-cell maturation at early-B and pre-B lymphoblastic stages and related to megakaryocytic differentiation), CD36 (erythroid differentiation lineage), GATA2 (Over expression of GATA-2 inhibits erythroid and promotes megakaryocyte differentiation) and CD61 (megakaryocytic differentiation marker) was measured.
FIG. 4. CentANS induces Differentiation in K562 cells. […] (B) Expression of differentiation Markers—K562 cells were treated with vehicle; V (DMSO) or centANS and mRNA from these cells were isolated and reverse transcribed. cDNA was used to measure the expression CD10, GATA2, CD61, (megakaryocytic lineage markers) and CD36 (Erythroid lineage marker) by Quantitative Real time PCR, GAPDH was used as control. […]

[8] = test system: PBMCs from patients with BCR-ABL H396R mutation; experiment: MTT cytotoxicity in PBMCs from CML patient with H396R BCR-ABL mutation; format: cell-based, human; conditions: 5 μM, 48 h
[9] = target: T1, EGFR (Homo sapiens, UniProt P00533); experiment: EGF dependent EGFR phosphorylation ELISA in MCF-7 cells; format: cell-based; conditions: EGF stimulated, Tyr1068, ELISA, read-out: IC50 in terms of EGFR phosphorylation
T1 construct: Serum starved (A,C) MCF-7 cells and (B,D) MDA-MB231 cells were pre-incubated for 1 h; endogenous in cells; host or cells: MCF-7
Experimental: Since EGFR and Her2 play major roles in breast cancer development and metastatis, the effect of Centans on regulation of these two factors was evaluated in MCF-7 and MDA-MB-231 cells by enzyme-linked immunosorbant assays (ELISA). As depicted in FIGS. 7. A and B, EGF dependent EGFR phosphorylation at Tyr^1068 was strongly attenuated by Centans in both MCF-7 and MDA-MB-231 cells and this effect was much stronger than that of Gefitinib (marketted EGFR inhibitor/anti-cancer drug).
FIG. 7. Inhibition of EGFR and Her2 phosphorylation by Centans in MCF-7 and MDA-MB231 cells. Serum starved (A,C) MCF-7 cells and (B,D) MDA-MB231 cells were pre-incubated for 1 h with the indicated concentrations of Centans prior to stimulation with EGF for 15 min and EGFR (A and B) or Her2 (C and D) phosphorylation were measured by ELISA. Gef=Gefitinib. All doses are in μM.

[10] = test system: DU-145; experiment: MTT assay in DU-145 prostate tumor cells; format: cell-based; conditions: Homo sapiens, DU-145, Table 6, 48 h, 10 point dose response
[11] = test system: U937; experiment: Cytotoxicity in U937 cells; format: cell-based; conditions: Table 2; oxalate

SRC, sequence (P12931 whole entry): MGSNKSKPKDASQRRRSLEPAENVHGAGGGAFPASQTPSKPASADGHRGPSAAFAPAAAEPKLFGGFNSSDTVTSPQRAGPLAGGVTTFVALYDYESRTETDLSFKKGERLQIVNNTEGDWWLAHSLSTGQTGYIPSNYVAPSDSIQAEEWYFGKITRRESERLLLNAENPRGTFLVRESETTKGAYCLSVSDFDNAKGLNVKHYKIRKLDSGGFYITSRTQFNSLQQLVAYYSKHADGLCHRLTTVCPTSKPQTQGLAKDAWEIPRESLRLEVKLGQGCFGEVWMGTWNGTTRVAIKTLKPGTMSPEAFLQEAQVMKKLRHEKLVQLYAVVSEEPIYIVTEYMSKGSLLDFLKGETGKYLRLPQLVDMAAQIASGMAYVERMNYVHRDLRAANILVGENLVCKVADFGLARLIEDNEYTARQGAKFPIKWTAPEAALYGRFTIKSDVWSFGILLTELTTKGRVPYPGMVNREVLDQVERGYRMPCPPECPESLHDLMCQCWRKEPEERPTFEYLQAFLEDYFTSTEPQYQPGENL
T1 sequence (P00533 25-1210): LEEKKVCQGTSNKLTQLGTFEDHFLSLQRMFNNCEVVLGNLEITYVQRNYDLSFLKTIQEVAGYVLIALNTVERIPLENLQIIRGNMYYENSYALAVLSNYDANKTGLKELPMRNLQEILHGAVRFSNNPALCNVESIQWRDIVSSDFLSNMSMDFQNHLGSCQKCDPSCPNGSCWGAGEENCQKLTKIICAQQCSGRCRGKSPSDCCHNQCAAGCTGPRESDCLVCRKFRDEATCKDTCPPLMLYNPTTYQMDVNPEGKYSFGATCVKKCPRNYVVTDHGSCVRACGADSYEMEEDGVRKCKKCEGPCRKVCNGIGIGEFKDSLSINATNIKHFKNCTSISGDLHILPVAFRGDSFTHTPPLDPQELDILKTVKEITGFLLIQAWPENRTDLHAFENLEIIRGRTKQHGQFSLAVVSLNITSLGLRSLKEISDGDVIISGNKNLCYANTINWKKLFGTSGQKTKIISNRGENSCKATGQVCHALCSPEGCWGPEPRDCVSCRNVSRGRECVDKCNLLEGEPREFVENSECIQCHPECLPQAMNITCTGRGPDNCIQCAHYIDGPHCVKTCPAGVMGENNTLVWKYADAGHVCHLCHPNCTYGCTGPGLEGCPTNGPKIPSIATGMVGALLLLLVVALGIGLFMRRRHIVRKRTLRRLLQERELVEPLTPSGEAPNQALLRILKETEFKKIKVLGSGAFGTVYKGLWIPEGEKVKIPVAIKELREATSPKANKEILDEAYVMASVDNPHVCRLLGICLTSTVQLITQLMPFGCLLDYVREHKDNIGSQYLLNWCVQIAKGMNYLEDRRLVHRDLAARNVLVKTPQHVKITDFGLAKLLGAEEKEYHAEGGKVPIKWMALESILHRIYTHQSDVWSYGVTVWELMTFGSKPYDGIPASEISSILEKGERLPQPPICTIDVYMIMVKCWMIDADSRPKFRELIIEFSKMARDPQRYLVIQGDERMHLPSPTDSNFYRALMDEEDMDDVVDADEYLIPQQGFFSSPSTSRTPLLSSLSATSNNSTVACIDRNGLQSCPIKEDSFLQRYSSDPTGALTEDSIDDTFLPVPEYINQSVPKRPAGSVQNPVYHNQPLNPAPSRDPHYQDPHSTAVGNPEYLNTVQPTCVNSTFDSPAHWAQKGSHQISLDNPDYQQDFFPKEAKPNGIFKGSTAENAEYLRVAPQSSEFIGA

## CCN(CC)CCO/N=C(/c1ccc(SC)cc1)c1cccc2ccccc12 [Compound 5d, (4-(methylthio)phenyl)(naphthalen-1-yl)methanone O-2-(diethylamino)ethyl oxime oxalate]
[1]
  apoptotic cell population: concentration-dependent increase in apoptotic cell population
[2]
  differentiation of HL-60 cells: morphological features of differentiation, such as condensation of nuclei and protrusion of cytoplasm, were clearly evident
[3]
  SRC dephosphorylation: dephosphorylating SRC-1 in a dose dependent manner
[4]; MTT assay, solid tumor evaluation
  cytotoxicity in non-cancer cell-line Vero: not in non-cancer cell-lines Vero and HEK-293
[4]; Primates, Vero, Table 2, normal cell line
  IC50: > 25 µM
[5]
  IC50: 3.61 µM
[6]
  IC50: 7.2 µM
[7]
  differentiation of K562 cells: capable of inducing differentiation in K562 cells in a dose-dependent manner
[8]
  % cell death: 40.78%
[9]
  IC50: 0.0147 µM
[10]
  IC50: 9 µM
[11]
  IC50: 8.12 µM

From patent US9994515B2, “Aryl naphthyl methanone oxime(s) and process for preparation thereof” (Council of Scientific & Industrial Research, priority 2013, dated 2018)
